This note sets out measurements from publication PMC6471386, “Cloning, Expression, and Characterization of a Psychrophilic Glucose 6-Phosphate Dehydrogenase from Sphingomonas sp. PAMC 26621” (International Journal of Molecular Sciences, 2019).

Structures are written as SMILES.

This assay addresses T1, SpG6PD1 (Sphingomonas sp. PAMC 26621, UniProt Z9Q3C2ML64).
T1 construct: cloning primer appears to add Gly after Met1 (ATGGGGCCAATC); 56 kDa on SDS-PAGE; tag removal not mentioned
T1 sequence (Z9Q3C2ML64 1-488): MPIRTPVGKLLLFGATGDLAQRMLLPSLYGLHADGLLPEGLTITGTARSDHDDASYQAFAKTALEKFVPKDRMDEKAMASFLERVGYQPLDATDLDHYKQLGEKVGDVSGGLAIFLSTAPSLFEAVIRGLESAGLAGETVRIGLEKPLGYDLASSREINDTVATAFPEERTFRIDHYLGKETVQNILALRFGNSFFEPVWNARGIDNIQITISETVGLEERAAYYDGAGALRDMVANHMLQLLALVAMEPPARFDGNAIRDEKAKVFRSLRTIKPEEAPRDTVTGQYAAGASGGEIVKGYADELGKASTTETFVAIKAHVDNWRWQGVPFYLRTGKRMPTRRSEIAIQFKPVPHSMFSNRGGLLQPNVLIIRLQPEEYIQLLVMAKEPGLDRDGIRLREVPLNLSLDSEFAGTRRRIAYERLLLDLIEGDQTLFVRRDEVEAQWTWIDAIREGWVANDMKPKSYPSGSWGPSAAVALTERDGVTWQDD
Nature of the assay: NAD(P)H formation at […] nm, Lineweaver-Burk. It counts as biochemical. The settings on record: NADP+ as co-substrate (assay mixture 100 µM); G6P varied 500-2000 µM; 50 mM Tris-HCl pH 8.0, 25 mM NaCl, 0.1 mM EDTA, 5% glycerol; 30 °C.

Take `O=P(O)(O)OC[C@H]1OC(O)[C@H](O)[C@@H](O)[C@@H]1O` (stereo partly shown) [glucose 6-phosphate]: the Michaelis constant (Km) worked out at 145 ± 2 µM.

One may read the Km as the substrate concentration at which the rate is half of its maximum.
